Laboratory results: US20120328569A1, “INHIBITORS OF HEPATITIS C VIRUS NS5B POLYMERASE” (priority 2010, published 2012)

The compounds below were run on HCV genotype 1b replicon (assay: HCV replicon assay, cell ELISA with antibody to replicon-encoded NS3/4A (genotype 1b replicon)). Conditions: Hepatitis C virus, 96 h, read-out: Replicon 1b IC50 (nM), HCV genotype 1b replicon cells, 96 hours incubation, NS3/4A ELISA readout.
Type: cell-based, hepatitis C virus
Summary of the method: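 Replicon-harbouring cells carrying neomycin phosphotransferase were incubated 96 h with a compound dilution series without G418. Replication was quantified indirectly by a cell ELISA detecting replicon-encoded NS3/4A. IC50 values were calculated relative to DMSO control with a four-parameter fit.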

Q: How did the IC50 turn out when `CONC(=O)c1c(-c2ccc(F)cc2)oc2cc(N(C)S(C)(=O)=O)c(-c3cccc(C)c3)cc12` [Example 92, 2-(4-fluorophenyl)-N-methoxy-6-[methyl (methylsulfonyl)amino]-5-(3-methylphenyl)-1-benzofuran-3-carboxamide] was run?
A: 252 nM

Q: `CONC(=O)c1c(-c2ccc(F)cc2)oc2cc(N(C)S(C)(=O)=O)c(-c3ccc(C)cc3)cc12` [Example 93, 2-(4-fluorophenyl)-N-methoxy-6-[methyl (methylsulfonyl)amino]-5-(4-methylphenyl)-1-benzofuran-3-carboxamide] was tested. Which IC50 did it give?
A: 54 nM

Q: Which IC50 does the source give for `CONC(=O)c1c(-c2ccc(F)cc2)oc2cc(N(C)S(C)(=O)=O)c(-c3cccc(C#N)c3)cc12` [Example 94, 5-(3-cyanophenyl)-2-(4-fluorophenyl)-N-methoxy-6-[methyl (methylsulfonyl)amino]-1-benzofuran-3-carboxamide] here?
A: 450 nM

Q: For `CONC(=O)c1c(-c2ccc(F)cc2)oc2cc(N(C)S(C)(=O)=O)c(-c3cccc(F)c3)cc12` [Example 95, 5-(3-fluorophenyl)-2-(4-fluorophenyl)-N-methoxy-6-[methyl (methylsulfonyl)amino]-1-benzofuran-3-carboxamide], which IC50 is on record?
A: 130 nM

Q: With `CONC(=O)c1c(-c2ccc(F)cc2)oc2cc(N(C)S(C)(=O)=O)c(-c3ccc(F)cc3)cc12` [Example 96, 2,5-bis(4-fluorophenyl)-N-methoxy-6-[methyl (methylsulfonyl)amino]-1-benzofuran-3-carboxamide] as the compound, how does the IC50 read?
A: 1230 nM

Q: `CONC(=O)c1c(-c2ccc(F)cc2)oc2cc(N(C)S(C)(=O)=O)c(-c3cccc(OC)c3)cc12` [Example 97, 2-(4-fluorophenyl)-N-methoxy-5-(3-methoxyphenyl)-6-[methyl (methylsulfonyl)amino]-1-benzofuran-3-carboxamide] was tested. Which IC50 did it give?
A: 126 nM

Q: For `CONC(=O)c1c(-c2ccc(F)cc2)oc2cc(N(C)S(C)(=O)=O)c(-c3ccc(OC)cc3)cc12` [Example 98, 2-(4-fluorophenyl)-N-methoxy-5-(4-methoxyphenyl)-6-[methyl (methylsulfonyl)amino]-1-benzofuran-3-carboxamide], which IC50 is on record?
A: 72 nM

Q: With `CONC(=O)c1cccc(-c2cc3c(C(=O)NOC)c(-c4ccc(F)cc4)oc3cc2N(C)S(C)(=O)=O)c1` [Example 99, 2-(4-fluorophenyl)-N-methoxy-5-[3-(methoxycarbamoyl)phenyl]-6-[methyl(methylsulfonyl)amino]-1-benzofuran-3-carboxamide] as the compound, how does the IC50 read?
A: 623 nM

Q: How did the IC50 turn out when `CNC(=O)c1cccc(-c2cc3c(C(=O)NC)c(-c4ccc(F)cc4)oc3cc2N(C)S(C)(=O)=O)c1` [Example 100, 2-(4-fluorophenyl)-N-methyl-5-[3-(methylcarbamoyl)phenyl]-6-[methyl(methylsulfonyl)amino]-1-benzofuran-3-carboxamide] was run?
A: 45 nM

Q: `CNC(=O)c1c(-c2ccc(F)cc2)oc2cc(N(C)S(C)(=O)=O)c(-c3cccc(CN)c3)cc12` [Example 101, 5-[3-(aminomethyl)phenyl]-2-(4-fluorophenyl)-N-methyl-6-[methyl(methylsulfonyl)amino]-1-benzofuran-3-carboxamide] was tested. Which IC50 did it give?
A: 505 nM

Q: Which IC50 does the source give for `CNC(=O)c1c(-c2ccc(F)cc2)oc2cc(N(C)S(C)(=O)=O)c(-c3cccc(CNS(C)(=O)=O)c3)cc12` [Example 102, 2-(4-fluorophenyl)-N-methyl-6-[methyl(methylsulfonyl)amino]-5-(3-{[(methylsulfonyl)amino]methyl}phenyl)-1-benzofuran-3-carboxamide] here?
A: 7 nM

Q: For `CNC(=O)c1c(-c2ccc(F)cc2)oc2cc(N(C)S(C)(=O)=O)c(-c3cccc(CNS(=O)(=O)c4ccccc4)c3)cc12` [Example 103, 2-(4-fluorophenyl)-N-methyl-6-[methyl(methylsulfonyl)amino]-5-(3-{[(phenylsulfonyl)amino]methyl}phenyl)-1-benzofuran-3-carboxamide], which IC50 is on record?
A: < 8 nM

Q: With `CNC(=O)c1c(-c2ccc(F)cc2)oc2cc(N(C)S(C)(=O)=O)c(-c3ccc(CNS(C)(=O)=O)cc3)cc12` [Example 104] as the compound, how does the IC50 read?
A: 164 nM
